Patent US20050245399A1, “Pyrazole derivatives as herbicidal compositions containing them” (ISHIHARA SANGYO KAISHA, LTD., priority 2004, published 2005)

Legend:
Type in all cases: in vivo
[1] = tested on: barnyardgrass (Echinochiloa oryzicola: ECHOR); assay: Test Example 3 water application herbicidal activity (paddy), ECHOR; conditions: 63 g a.i./ha, water application under submerged condition at 0.5 leaf stage, visually observed 14th day after application; 0 = untreated control, 100 = complete kill
In short: (§1)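 Submerged application in flooded paddy soil (3–4 cm water); weeds treated at 0.5-leaf stage, transplanted rice 4 d after transplanting. Scored visually as % growth control: weeds at 14 d, rice at 21 d.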

[2] = tested on: prickly sida (Sida spinosa L.): SEDSP; assay: Test Example 1 pre-emergence herbicidal activity, SIDSP; conditions: Rate 63 g a.i./ha, visually observed 20th to 23rd day after application
In short: (§2)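 Visual scoring 20–23 days after treatment gives percent growth control, where 0 equals untreated and 100 means complete kill. Treatment: pre-emergence spray of formulated compound in 500 L/ha water, one day after sowing in upland soil.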

[3] = tested on: rice (Oryza sativa L.): ORYSA; assay: Test Example 1 pre-emergence herbicidal activity, ORYSA; conditions: Rate 63 g a.i./ha, visually observed 20th to 23rd day after application
In short: as §2

[4] = tested on: soybean (Glycine max Merr.), GLXMA; assay: Test Example 2 post-emergence (foliage treatment) herbicidal activity, GLXMA; conditions: 63 g a.i./ha
In short: (§3)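 A small sprayer delivered the diluted WP or EC formulation (500 L/ha water, 0.1% v/v spreader) over emerged seedlings in upland soil pots. Damage relative to untreated plants was graded visually from 0 to 100% three weeks or so later (days 20-23).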

[5] = tested on: soybean (Glycine max Merr.): GLXMA; assay: Test Example 1 pre-emergence herbicidal activity, GLXMA; conditions: Rate 63 g a.i./ha, visually observed 20th to 23rd day after application
In short: as §2

[6] = tested on: corn (Zea mays L.), ZEAMX; assay: Test Example 2 post-emergence (foliage treatment) herbicidal activity, ZEAMX; conditions: 63 g a.i./ha
In short: as §3

[7] = tested on: velvetleaf (Abutilon theophrasti), ABUTH; assay: Test Example 2 post-emergence (foliage treatment) herbicidal activity, ABUTH; conditions: 63 g a.i./ha
In short: as §3

[8] = tested on: corn (Zea mays L.): ZEAMX; assay: Test Example 1 pre-emergence herbicidal activity, ZEAMX; conditions: Rate 63 g a.i./ha, visually observed 20th to 23rd day after application
In short: as §2

[9] = tested on: redroot pigweed (Amaranthus retroflexus L.): AMARE; assay: Test Example 1 pre-emergence herbicidal activity, AMARE; conditions: Rate 63 g a.i./ha, visually observed 20th to 23rd day after application
In short: as §2

[10] = tested on: redroot pigweed (Amaranthus retroflexus L.), AMARE; assay: Test Example 2 post-emergence (foliage treatment) herbicidal activity, AMARE; conditions: 63 g a.i./ha
In short: (§4)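 Foliar spray of formulated compound (500 L/ha dilution water, 0.1% v/v spreader) onto young potted plants at defined leaf stages. Scored 0-100% by visual inspection 20-23 d post-spray.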

[11] = tested on: japanese bulrush (Scirpus juncoides: SCPJO); assay: Test Example 3 water application herbicidal activity (paddy), SCPJO; conditions: 63 g a.i./ha, water application under submerged condition at 0.5 leaf stage, visually observed 14th day after application; 0 = untreated control, 100 = complete kill
In short: as §1

[12] = tested on: green foxtail (Setaria viridis L.), SETVI; assay: Test Example 2 post-emergence (foliage treatment) herbicidal activity, SETVI; conditions: 63 g a.i./ha
In short: as §3

[13] = tested on: wheat (Triticum aestivum L.): TRZAX; assay: Test Example 1 pre-emergence herbicidal activity, TRZAX; conditions: Rate 63 g a.i./ha, visually observed 20th to 23rd day after application
In short: as §2

[14] = tested on: japanese ribbon wapato (Sagittaria pygmaea: SA GPY); assay: Test Example 3 water application herbicidal activity (paddy), SAGPY; conditions: 63 g a.i./ha, water application under submerged condition, tubers planted, visually observed 14th day after application; 0 = untreated control, 100 = complete kill
In short: as §1

[15] = tested on: wheat (Triticum aestivum L.), TRZAX; assay: Test Example 2 post-emergence (foliage treatment) herbicidal activity, TRZAX; conditions: 63 g a.i./ha
In short: as §3

[16] = tested on: rice (Oryza sativa L.), ORYSA; assay: Test Example 2 post-emergence (foliage treatment) herbicidal activity, ORYSA; conditions: 63 g a.i./ha
In short: as §4

[17] = tested on: crabgrass (Digitaria sanguinalis L.), DIGSA; assay: Test Example 2 post-emergence (foliage treatment) herbicidal activity, DIGSA; conditions: 63 g a.i./ha
In short: as §4

[18] = tested on: rice (Oryza sativa L.: ORYSA); assay: Test Example 3 water application herbicidal activity (paddy), transplanted rice ORYSA; conditions: 63 g a.i./ha, water application 4th day after transplantation of 2 leaf stage rice, visually observed 21st day after application; 0 = untreated control, 100 = complete kill
In short: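 Rice at 2-leaf stage is transplanted into flooded puddled soil and treated by water application 4 days later, at a predetermined active-ingredient dose. Crop injury is rated visually as growth control (0–100%) 21 days after treatment.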

[19] = tested on: velvetleaf (Abutilon theophrasti): ABUTH; assay: Test Example 1 pre-emergence herbicidal activity, ABUTH; conditions: Rate 63 g a.i./ha, visually observed 20th to 23rd day after application
In short: as §2

[20] = tested on: prickly sida (Sida spinosa L.), SIDSP; assay: Test Example 2 post-emergence (foliage treatment) herbicidal activity, SIDSP; conditions: 63 g a.i./ha
In short: as §3

[21] = tested on: barnyardgrass (Echinochloa crus-galli L.), ECHCG; assay: Test Example 2 post-emergence (foliage treatment) herbicidal activity, ECHCG; conditions: 63 g a.i./ha
In short: as §4

[22] = tested on: crabgrass (Digitaria sanguinalis L.): DIGSA; assay: Test Example 1 pre-emergence herbicidal activity, DIGSA; conditions: Rate 63 g a.i./ha, visually observed 20th to 23rd day after application
In short: as §2

[23] = tested on: barnyardgrass (Echinochloa crus-galli L.): ECHCG; assay: Test Example 1 pre-emergence herbicidal activity, ECHCG; conditions: Rate 63 g a.i./ha, visually observed 20th to 23rd day after application
In short: as §2

[24] = tested on: green foxtail (Setaria viridis L.): SETVI; assay: Test Example 1 pre-emergence herbicidal activity, SETVI; conditions: Rate 63 g a.i./ha, visually observed 20th to 23rd day after application
In short: as §2

Row | Structure (SMILES) | growth controlling degrees (%) ECHOR [1] | Pre-emergence Herbicidal Activity SIDSP (growth controlling degree) [2] | Pre-emergence Herbicidal Activity ORYSA (growth controlling degree) [3] | growth controlling degree, GLXMA [4] | Pre-emergence Herbicidal Activity GLXMA (growth controlling degree) [5] | growth controlling degree, ZEAMX [6] | growth controlling degree, ABUTH [7] | Pre-emergence Herbicidal Activity ZEAMX (growth controlling degree) [8] | Pre-emergence Herbicidal Activity AMARE (growth controlling degree) [9] | growth controlling degree, AMARE [10] | growth controlling degrees (%) SCPJO [11] | growth controlling degree, SETVI [12] | Pre-emergence Herbicidal Activity TRZAX (growth controlling degree) [13] | growth controlling degrees (%) SAGPY [14] | growth controlling degree, TRZAX [15] | growth controlling degree, ORYSA [16] | growth controlling degree, DIGSP [17] | growth controlling degrees (%) ORYSA [18] | Pre-emergence Herbicidal Activity ABUTH (growth controlling degree) [19] | growth controlling degree, SIDSP [20] | further results
1 | COc1cccc(C(=O)Nc2c(OC)c(Cl)cc(F)c2-c2nn(C)c(OC(F)F)c2Cl)c1 [Compound 1-28] | 100% | 100% | 60% | 98% | 20% | 90% | 100% | 0% | 100% | 100% | 80% | 100% | 20% | 100% | 40% | 95% | 100% | 50% | 100% | 90% | growth controlling degree, ECHCO [21]: 100%; Pre-emergence Herbicidal Activity DIGSP (growth controlling degree) [22]: 100%; Pre-emergence Herbicidal Activity ECHCG (growth controlling degree) [23]: 80%; Pre-emergence Herbicidal Activity SETVI (growth controlling degree) [24]: 100%
2 | COc1ccc(C(=O)Nc2c(OC)c(Cl)cc(F)c2-c2nn(C)c(OC(F)F)c2Cl)cc1 [Compound 1-29] | 100% | 100% | 40% | 100% | 20% | 60% | 95% | 20% | 100% | 100% | 50% | 100% | 10% | 60% | 50% | 80% | 100% | 50% | 100% | 100% | growth controlling degree, ECHCO [21]: 100%; Pre-emergence Herbicidal Activity DIGSP (growth controlling degree) [22]: 100%; Pre-emergence Herbicidal Activity ECHCG (growth controlling degree) [23]: 80%; Pre-emergence Herbicidal Activity SETVI (growth controlling degree) [24]: 100%
